# Laboratory results published in US11759480B2, “Compositions and methods for CAR T cell therapy” (ENDOCYTE, INC., priority 2017, dated 2023).
# Read-outs that look alike come from different tables or passages of the source.
# Legend:
# [1] = tested on: MDA-MB-231 solid tumor xenografts; experiment: Control of CAR T cell activation in vivo: break, FA competitor or both (Example 19); details: 15×10^6 CAR T cells + FITC-Folate 500 nmole/kg every other day
# Procedure: Five study groups were designed to test whether anti-FITC CAR T cell activation can be controlled via temporal termination of FITC-ligands, by administering a competitor small molecule, or a combination approach of both discontinuing of FITC-ligands and/or administering an FA competitor. The first group was treated by administering anti-FITC CAR T cell with phosphate-buffered saline (PBS) as a negative control. Every other day over the course of the study, the second, third, fourth and fifth groups were treated with anti-FITC CAR T cell mixed with FITC-Folate (500 nmole/kg). […] Mouse bodyweight was measured regularly to test for toxicity.
# MDA-MB-231 = assay type: in vivo; details: for mice died (or euthanized due to sCRS): Week 2
# Procedure: To evaluate whether pre-painting tumors with EC17 can reduce the therapy-related toxicity (e.g. sCRS), NSG mice were implanted with MDA-MB-231. Since larger tumor burden is correlated with more severe CRS, the treatment was started when tumor size reached […]. Mice were divided into two groups and predosed with 500 nmol/kg EC17 at different time points before CAR-T administration (FIGS. 26A and 26B). Group #1 was pre-dosed 4 hours before the administration of 8 million CAR-T cells, while group #2 was pre-dosed 24 hours before the administration of 8 million CAR-T cells. 500 nmol/kg EC17 was then i.v. dosed once per week (at days 1, 8, 15 etc.) post CAR-T administration (FIGS. 26D and 26E). […] No difference in anti-tumor activity was found in these two groups, and all surviving mice became tumor free eventually. Thus, toxicity was less in mice with 24 hour pre-painting than in mice with 4 hour pre-painting with EC17.
# MDA-MB-231 tumors [2] = experiment: IFN-γ in blood versus EC17 dose level and presence of tumor (Example 24); assay type: in vivo, mice; details: 10 days after CAR-T injection, EC17 three times per week
# Procedure: CAR-T cells were injected into naïve mice (8 million per mouse) and mice bearing MDA-MB-231 tumors (5 million per mouse). Various levels of EC17 were administrated three times per week. IFN-γ in blood was measured 10 days after CAR-T cell injection.
# OV90 = experiment: FITC-CAR-T/EC17 therapy, OV90 model (Example 28); assay type: in vivo, NSG mice; details: 500 nmol/kg weekly, 5 million FITC-CAR-T
# Procedure: To test whether FITC-CAR-T/EC17 therapy has anti-tumor activity in various FR+ tumor models, NSG mice were subcutaneously implanted with MDA-MB-231 (triple negative breast cancer cell line), OV90 (human ovarian cancer cell line), KB (human cervical adenocarcinoma cell line), SKOV-3 (human ovarian carcinoma cell line), or HEK293-FRa (HEK293 stably-transfected with human FRa). When tumor size reached […], one dose of EC17 at 500 nmol/kg of body weight was injected by tail vein followed with administering of 5 million FITC-CAR-T cells 4 hours later. 500 nmol/kg EC17 was dosed once every week after the initial EC17/CAR-T administration (about day 7), tumor size and body weights of mice were monitored three times per week. The EC17 dosing days were labeled as green dashed vertical lines in the graph. […] EC17 dose-dependent temporary body weight loss was also observed in all tumor bearing mice, indicating the activation of CAR-Ts is EC17-dependent in these mice.
# MDA-MB-231 tumor = experiment: CAR-T anti-tumor activity and toxicity at different EC17 dose levels (Example 27); assay type: in vivo
# Procedure: Immunodeficient NSG mice (Jackson Laboratory) were used to study CAR T cell anti-tumor activity and its toxicity in the presence of different EC17 dose levels. MDA-MB-231 tumor cells were used to establish subcutaneous solid tumor xenografts. When tumor volume of around 100-150 mm^3 was reached, various concentrations of EC17 were pre-injected 4 hours before i.v. injection of 10 million CAR-T cells. Various concentrations of EC17 were then administrated three times per week after the initial EC17 and CAR-T cell injections. The negative control group was injected with 500 nmol/kg EC17 (4 hour in advance) and […] unmodified T cells. 500 nmol/kg EC17 was then administrated three times per week after initial injection. Tumor size and body weight were measured to monitor the anti-tumor activity and the toxicity. […] By adjusting the EC17 dose level, CAR-T anti-tumor activity can be maintained while the resulting body weight loss (toxicity) can be reduced. In FIGS. 20A and 20B, EC17 is also referred to as “adaptor” or “bi-specific adaptor”.
# MDA-MB-231 tumors [3] = experiment: FITC-CAR-T cell proliferation in vivo versus EC17 dose (Example 36); parameters: species or system NSG mice
# Procedure: To evaluate whether the bridge dose can control CAR-T proliferation in vivo, NSG mice bearing MDA-MB-231 tumors (250-500 mm3) were divided into 4 groups and dosed with 0, 5, 50, or 500 nmol/kg of body weight of EC17 respectively (as shown in FIG. 40A). Four hours later, the four groups were administered with 5 million FITC-CAR-T cells which were cultured in vitro for 11 days, while one group of mice pre-dosed with 500 nmol/kg EC17 was not dosed with CAR-T cells and was used as a “No CAR-T control”. […] Blood samples were then collected 16 hours post the second EC17 dose and analyzed for CAR-T numbers in blood circulation (FIG. 40B). […] The interpretation of this finding is that CAR-T cells proliferated more in mice dosed with 50 or 500 nmol/kg EC17 than in mice dosed with 5 nmol/kg EC17, so that the CAR-T counts in blood circulation were higher.
# To further confirm that FITC-CAR-T proliferation is EC17 dose-dependent, we also evaluated CAR-T proliferation in vivo when CAR-Ts were given more time to settle down and proliferate. For this purpose, we examined CAR-T cell number in mice which were administered with CAR-T cells six days earlier and four doses of EC17 had been given to boost CAR-T proliferation in vivo. NSG mice bearing MDA-MB-231 tumors (250-500 mm3) were divided into 4 groups and dosed with 0, 5, 50, or 500 nmol/kg of body weight of EC17 respectively (as shown in FIG. 41A). Four hours later, all mice were administered with 5 million FITC-CAR-T cells which were cultured in vitro for 18 days. Various levels of EC17 were then dosed at days 1, 3, 5 post CAR-T administering to boost CAR-T proliferation. Mouse blood samples were collected 24 hours post the last EC17 dose, CAR-T cells in blood were stained with anti-human CD45 antibody and counted by FACS.
structure (smiles),measurement,setting,value
"Nc1nc2ncc(CNc3ccc(C(=O)NC(CCC(=O)NCCNC(=S)Nc4ccc(-c5c6ccc(=O)cc-6oc6cc(O)ccc56)c(C(=O)O)c4)C(=O)O)cc3)nc2c(=O)[nH]1 (centres unmarked) [EC17, FITC-Folate]",weight loss (serious CAR T cell mediated toxicity),[1],> 10%
same,mice survived over 5 weeks,MDA-MB-231; 4-hour pre-painting,17%
same,mice died (or euthanized due to sCRS),MDA-MB-231; 4-hour pre-painting,33%
same,mice died,"MDA-MB-231; 4-hour pre-painting, Week 3",33%
same,mice died,"MDA-MB-231; 4-hour pre-painting, week 4",17%
same,mice died (or euthanized due to sCRS),MDA-MB-231; 24-hour pre-painting,17%
same,mice survived over 5 weeks,"MDA-MB-231; NSG, mouse, in vivo",83%
same,tumor outcome of surviving mice,MDA-MB-231; both pre-painting groups,tumor free
same,cytokine production (IFN-γ in blood),MDA-MB-231 tumors [2],dependent on both the bridge (EC17) dose level and the presence of the tumor
same,cures,OV90,50%
same,stable disease,OV90,50%
same,toxicity (body weight loss),MDA-MB-231 tumor; 20 nmol/kg TIW,least toxicity
same,toxicity (body weight loss),MDA-MB-231 tumor; 500 nmol/kg TIW,strongest toxicity
same,tumor outcome,"MDA-MB-231 tumor; 500, 100 or 20 nmol/kg TIW, 10 million CAR-T",all eliminated
same,CAR-T cells in blood versus 0 nmol/kg EC17,"MDA-MB-231 tumors [3]; 5 nmol/kg, day 3",less CAR-T cells in their blood circulation
same,CAR-T cells in blood,"MDA-MB-231 tumors [3]; 50 or 500 nmol/kg, day 3",more CAR-T cells in their blood circulation
same,EC17 dose with the highest CAR-T count,"MDA-MB-231 tumors [3]; day 6, four EC17 doses",50 nmol/kg
